# Like-named read-outs stand apart in the source and are kept apart here.
# Columns and labels:
# [1] = molecular target: recombinant HIV-1 protease (Human immunodeficiency virus type 1 group M subtype B, UniProt P04585); experiment: biochemical; type: biochemical
# [2] = tested on: wild-type HIV-1 strain IIIB; experiment: microbe, parasite or virus in culture; type: cell-based
# [3] = tested on: mutant HIV-1 with I84V/L90M mutations in the protease gene; type: cell-based
# [4] = tested on: WT HIV-1; experiment: microbe, parasite or virus in culture; type: cell-based
# [5] = molecular target: 84V90M (Human immunodeficiency virus type 1 group M subtype B, UniProt P04585, I572V/L578M); experiment: cell-based; parameters: species or system HIV-1
# [6] = fold difference in EC50, mutant vs. wild type
# [7] = Ki (pM), class symbols, Table 10
structure (smiles),measurement,setting,value
COc1ccc(S(=O)(=O)N(CC(C)C)CC(O)C(CC2=CCN(CP(=O)(O)OC(C)C(=O)O)CC2)NC(=O)OC2COC3OCCC23)cc1 (stereo not shown),Ki,[1]; read-out: Ki,> 1000 pM
CCOP(=O)(CCC1=CCN(CC(NC(=O)OC2COC3OCCC23)C(O)CN(CC(C)C)S(=O)(=O)c2ccc(OC)cc2)CC1)OCC (stereo not shown),EC50,[2]; read-out: EC50,< 50 nM
same,I84V/L90M fold change,[3]; [6],+ (>3 to ≦10)
CCOC(=O)C(C)OP(=O)(Oc1ccccc1)c1ccc(CN(C)CC(NC(=O)OC2COC3OCCC23)C(O)CN(CC(C)C)S(=O)(=O)c2ccc(OC)cc2)cc1 (stereo not shown),EC50,[2]; read-out: EC50,< 50 nM
same,I84V/L90M fold change,[3]; [6],+ (>3 to ≦10)
COc1ccc(S(=O)(=O)N(CC(C)C)CC(O)C(CN(C)Cc2ccc(P(=O)(O)OC(C)C(=O)O)cc2)NC(=O)OC2COC3OCCC23)cc1 (stereo not shown),Ki,[1]; read-out: Ki,> 1000 pM
CCOC(=O)C(C)OP(=O)(Cc1ccc2c(c1)CCN(C[C@H](NC(=O)O[C@H]1CO[C@H]3OCC[C@H]31)[C@H](O)CN(CC(C)C)S(=O)(=O)c1ccc(OC)cc1)C2)Oc1ccccc1 (stereo partly shown),EC50,[2]; read-out: EC50,50 to 500 nM
same,I84V/L90M fold change,[3]; [6],+ (>3 to ≦10)
COc1ccc(S(=O)(=O)N(CC(C)C)C[C@@H](O)[C@H](CN2CCc3cc(OCP(=O)(O)OC(C)C(=O)O)ccc3C2)NC(=O)O[C@H]2CO[C@H]3OCC[C@H]32)cc1 (stereo partly shown),Ki,[1]; read-out: Ki,100 to 1000 pM
COc1ccc(S(=O)(=O)N(CC(C)C)CC(O)C(Cc2ccc(C)cc2)NC(=O)OC2COC3OCCC23)cc1 (stereo not shown),EC50,[2]; read-out: EC50,< 50 nM
same,I84V/L90M fold change,[3]; I84V/L90M mutant,+ (>3 to ≦10)
COc1ccc(S(=O)(=O)N(CC(C)C)CC(O)C(Cc2ccc(O)cc2)NC(=O)OC2COC3OCCC23)cc1 (stereo not shown),EC50,[2]; read-out: EC50,< 50 nM
same,I84V/L90M fold change,[3]; I84V/L90M mutant,— (≦3)
COc1ccc(S(=O)(=O)N(C[C@@H](O)[C@H](Cc2ccccc2)NC(=O)O[C@H]2CO[C@H]3OCC[C@H]32)CC(C)(C)COCP(=O)(O)O)cc1,EC50,[2]; read-out: EC50,500 to 5000 nM
same,I84V/L90M fold change,[3]; I84V/L90M mutant,+++ (>30)
Cc1cccc(C)c1OCC(=O)N[C@@H](Cc1ccc(OCP(=O)(Oc2ccccc2)Oc2ccccc2)cc1)[C@H](O)CN(CC(C)C)S(=O)(=O)c1ccc(N)cc1,Ki,[1]; read-out: Ki,100 to 1000 pM
same,EC50,[2]; read-out: EC50,< 50 nM
same,I84V/L90M fold change,[3]; I84V/L90M mutant,++ (>10 to ≦30)
Cc1ccc(C(=O)N[C@@H](Cc2ccc(OCP(=O)(Oc3ccccc3)Oc3ccccc3)cc2)[C@H](O)CN(CC(C)C)S(=O)(=O)c2ccc(N)cc2)cc1O,Ki,[1]; read-out: Ki,100 to 1000 pM
same,EC50,[2]; read-out: EC50,50 to 500 nM
same,I84V/L90M fold change,[3]; I84V/L90M mutant,+ (>3 to ≦10)
Cc1ccc(C(=O)N[C@@H](Cc2ccc(OCP(=O)(OCc3ccccc3)OCc3ccccc3)cc2)[C@H](O)CN(CC(C)C)S(=O)(=O)c2ccc(N)cc2)cc1O,EC50,[2]; read-out: EC50,50 to 500 nM
same,I84V/L90M fold change,[3]; I84V/L90M mutant,+ (>3 to ≦10)
CCOC(=O)C(C)OP(=O)(COc1ccc(C[C@H](NC(=O)O[C@H]2CO[C@H]3OCC[C@H]32)[C@H](O)CN(CC(C)C)S(=O)(=O)c2ccccc2)cc1)Oc1ccccc1 (stereo partly shown),EC50,[2]; read-out: EC50,< 50 nM
same,I84V/L90M fold change,[3]; I84V/L90M mutant,+ (>3 to ≦10)
CCOC(=O)C(C)OP(=O)(COc1ccc(C[C@H](NC(=O)O[C@H]2CO[C@H]3OCC[C@H]32)[C@H](O)CN(CC(C)C)S(=O)(=O)c2ccc(F)cc2)cc1)Oc1ccccc1 (stereo partly shown),EC50,[2]; read-out: EC50,< 50 nM
same,I84V/L90M fold change,[3]; I84V/L90M mutant,+ (>3 to ≦10)
CC(C)CN(C[C@@H](O)[C@H](Cc1ccc(OCP(=O)(OCc2ccccc2)OC(C)C(=O)OCc2ccccc2)cc1)NC(=O)O[C@H]1CO[C@H]2OCC[C@H]21)S(=O)(=O)c1ccc(F)cc1 (stereo partly shown),EC50,[2]; read-out: EC50,50 to 500 nM
same,I84V/L90M fold change,[3]; I84V/L90M mutant,+ (>3 to ≦10)
CC(C)CN(CC(O)C(Cc1ccc(OCP(=O)(O)OC(C)C(=O)O)cc1)NC(=O)OC1COC2OCCC12)S(=O)(=O)c1ccc(CO)cc1 (stereo not shown),Ki,[1]; read-out: Ki,10 to 100 pM
CC(C)CN(CC(O)C(Cc1ccc(OCP(=O)(O)OC(C)C(=O)O)cc1)NC(=O)OC1COC2OCCC12)S(=O)(=O)c1ccc(CN2CCOCC2)cc1 (stereo not shown),Ki,[1]; read-out: Ki,> 1000 pM
CC(C)CN(CC(O)C(Cc1ccccc1)NC(=O)OC1COC2OCCC12)S(=O)(=O)c1ccc(OCP(=O)(O)Oc2ccccc2)cc1 (stereo not shown),Ki,[1]; Ki,10 to 100 pM
CCOP(=O)(CCn1nc(O)c2cc(CN3C(=O)N(Cc4ccccc4)[C@H](Cc4ccccc4)[C@H](O)[C@@H](O)[C@H]3Cc3ccccc3)ccc21)OCC,IC50,[1]; read-out: Enzymatic assay WT IC50/nM,109 nM
COc1ccc(CN2C(=O)N(Cc3ccc(OCc4ccccc4)cc3)[C@H](Cc3ccccc3)[C@H](O)[C@@H](O)[C@H]2Cc2ccccc2)cc1C#N,Ki,[1]; read-out: Enzymatic assay Ki,> 5000 pM
same,EC50,"[4]; MT-4, WT, read-out: Cell-based assay (MT-4) EC50/nM WT",5950 nM
CCOP(=O)(COc1ccc(CC2C(O)C(O)C(Cc3ccccc3)N(Cc3ccccc3)C(=O)N2Cc2ccccc2)cc1)OCC (stereo not shown),EC50,"[4]; Human immunodeficiency virus 1, read-out: Cell-based assay (MT-4) EC50/nM WT",107 nM
CCOP(=O)(COCCCCN1C(=O)N(Cc2ccc3[nH]nc(N)c3c2)C(Cc2ccccc2)C(O)C(O)C1Cc1ccccc1)OCC (stereo not shown) [CH2OCH2PO3Et2],EC50,[5],3300 nM
Nc1n[nH]c2ccc(CN3C(=O)N(CCCCOCP(=O)(O)O)C(Cc4ccccc4)C(O)C(O)C3Cc3ccccc3)cc12 (stereo not shown) [CH2OCH2PO3H2],EC50,[5],> 4240 nM
CCOP(=O)(COCCCN1C(=O)N(Cc2ccc3[nH]nc(N)c3c2)C(Cc2ccccc2)C(O)C(O)C1Cc1ccccc1)OCC (stereo not shown) [OCH2PO3Et2],EC50,[5],> 6000 nM
"CCOP(=O)(COc1ccc(CC2C(O)C(O)C(Cc3ccc(OC)cc3)N(Cc3cccc(N)c3)C(=O)N2Cc2cccc(N)c2)cc1)OCC (stereo not shown) [OCH3, Ph-mNH2, OCH2PO3Et2]",EC50,[5],535 nM
CCOP(=O)(Cc1ccc(CC(NC(=O)OC2COC3OCCC23)C(O)CN(CC(C)C)S(=O)(=O)c2ccc(OC)cc2)cc1)OCC (stereo not shown) [drawing 654 R1=OE R2=OE],Ki,[1]; read-out: Ki,< 10 pM
same,EC50,[2]; read-out: EC50,< 50 nM
same,I84V/L90M fold change,[3]; [6],+ (>3 to ≦10)
CCCCOC(=O)C(CC(C)C)NP(=O)(COc1ccc(CC(NC(=O)OC2COC3OCCC23)C(O)CN(CC(C)C)S(=O)(=O)c2ccc(OC)cc2)cc1)NC(CC(C)C)C(=O)OCCCC (stereo not shown) [drawing 655 R1=Leu-Bu R2=Leu-Bu],I84V/L90M fold change,[3]; [6],+ (>3 to ≦10)
COC(=O)C(C)OP(=O)(COc1ccc(CC(NC(=O)OC2COC3OCCC23)C(O)CN(CC(C)C)S(=O)(=O)c2ccc(OC)cc2)cc1)Oc1ccccc1 [drawing 658 R1=OPh R2=(R)Lac-Me],Ki,[1]; [7],< 10 pM
CC[C@H](OP(=O)(O)COc1ccc(C[C@H](NC(=O)O[C@H]2CO[C@H]3OCC[C@H]32)[C@H](O)CN(CC(C)C)S(=O)(=O)c2ccc(OC)cc2)cc1)C(=O)O [drawing 659 R1=OH R2=(S)Hba-OH],Ki,[1]; read-out: Ki,10 to 100 pM
CCOC(=O)C(C)OP(=O)(CCN(C)Cc1ccc(CC(NC(=O)OC2COC3OCCC23)C(O)CN(CC(C)C)S(=O)(=O)c2ccc(OC)cc2)cc1)Oc1ccccc1 (stereo not shown) [drawing 663 R1=Ph R2=Lac-Et],Ki,[1]; [7],100 to 1000 pM
same,EC50,"[2]; Human immunodeficiency virus 1, IIIB, MT2, class symbols, Table 10",50 to 500 nM
same,I84V/L90M fold change,[3]; [6],+ (>3 to ≦10)
COc1ccc(S(=O)(=O)N(CC(C)C)CC(O)C(Cc2ccc(NCP(=O)(NC(C)C(=O)OC(C)C)Oc3ccccc3)cc2)NC(=O)OC2COC3OCCC23)cc1 (stereo not shown) [drawing 704],Ki,[1]; [7],10 to 100 pM
COc1ccc(S(=O)(=O)N(CC(C)C)CC(O)C(Cc2ccc(NCP(=O)(NC(C)C(=O)OC(C)C)Oc3ccccc3)cc2)NC(=O)OC2COC3OCCC23)cc1 (stereo not shown) [drawing 705],Ki,[1]; [7],< 10 pM
CCCCOC(=O)C(C)OP(=O)(COc1ccc(C[C@H](NC(=O)O[C@H]2CO[C@H]3OCC[C@H]32)[C@H](O)CN(CC(C)C)S(=O)(=O)c2cccc(N)c2)cc1)Oc1ccccc1 (stereo partly shown) [drawing 763],Ki,[1]; read-out: Ki,10 to 100 pM
same,EC50,[2]; read-out: EC50,50 to 500 nM
Nc1n[nH]c2ccc(CN3C(=O)N(Cc4cccc(OCP(=O)(O)Oc5ccccc5)c4)C(Cc4ccccc4)C(O)C(O)C3Cc3ccccc3)cc12 (stereo not shown) [m-OCH2PO3HPh],EC50,[5],> 6000 nM
Nc1n[nH]c2ccc(CN3C(=O)N(Cc4cccc(OCP(=O)(Oc5ccccc5)Oc5ccccc5)c4)C(Cc4ccccc4)C(O)C(O)C3Cc3ccccc3)cc12 (stereo not shown) [m-OCH2PO3Ph2],EC50,[5],> 6000 nM

# From patent publication US20060115815A1 (priority 2002, published 2006)
